Eight compounds from patent publication US20180002692A1, “Sequence Specific and Organism Specific Antimicrobials and Related Materials and Methods” (priority 2015, published 2018) can be followed below.

“Also recorded” adds a separate entry of the source.

Data set [1] relates to ampicillin-resistant E. coli. Format: cell-based. The settings on record: no α-TSS (no treatment). As for the experimental part:
Three biological replicates were selected from colonies and pretreated for 16 hr with respective α-TSS concentration in liquid media. After pretreatment, the cultures were diluted 1:100,000 into liquid media with respective concentration of ampicillin and α-TSS and allowed to grow with shaking at 37° C. for 24 hr. The final OD at 562 nm at 24 hr was used for data analysis.
Data fitting analysis was performed in Origin Pro 6.1. Data was fit to a sigmoidal/decay Boltzman function.
The degree of re-sensitization exerted by α-TSS in presence of varying concentrations of ampicillin above and below the MIC determined for α-TSS was then evaluated.

The subject of a further data set is CRE E. coli. Briefly: Growth of clinical strain CRE E. coli. It is filed as cell-based, Escherichia coli. The settings on record: 10 μM. Here is the method: (§1) MG1655 E. coli cultures were started from individual colonies from 2% LB and 1.5% agar into M9 media. They were diluted 1:10,000 from overnight culture into fresh M9 with respective treatment and grown at 37° C. with 225 rpm shaking. Clinical strains were started from individual colonies grown on cation adjusted Mueller Hinton Broth with 1.5% agar into liquid CAMHB. These were diluted 1:10,000 into CAMHB medium with respective treatment and grown at 37° C. with 225 rpm shaking. Optical density measurements were taking using a Tecan GENios at 562 nm with a bandwidth of 35 nm. Lag time was calculated using Growth Rates Made Easy (Hall et al. Mol. Biol. Evol. 31(1):232-238).
(§2) MDR E. coli was inhibited by four of the six oligomers tested (α-folC, α-ffh, α-lexA, and α-rpsD), extended-spectrum beta-lactamase (ESBL) K. pneumoniae was inhibited by two of the antisense oligomers (α-fnrS and α-rpsD), and New Delhi metallo-β-lactamase (NDM-1) K. pneumoniae was inhibited by one of the oligomers tested (α-rpsD) (FIGS. 15-16).

Data set [2] has as its system MG1655 E. coli. Kind of data set: Colony forming unit analysis of MG1655. Format: cell-based. The settings on record: 10 μM, six and eight hours. An excerpt:
The effect of α-lexA, α-fnrS, and α-rpsD on cell viability using a colony forming unit analysis was then determine.

Data set [3] deals with MDR Salmonella typhimurium. Briefly: Growth of clinical strain MDR S. typhimurium. Format: cell-based. The settings on record: 10 μM. Here is the method: as §1, §2
In data set [4] the test system is MG1655 E. coli. Kind of data set: Growth (optical density, lag time) of MG1655. The settings on record: 10 μM antisense inhibitor; for growth of MG1655 E. coli cultures: 24 h. It is filed as cell-based. Here is the method:
as §1, with “31(1):232-238). […]” for “31(1):232-238).”

For the next data set, the system named is MDR E. coli. Kind of data set: Growth of clinical strain MDR E. coli. It is filed as cell-based. The settings on record: 10 μM. As for the experimental part: as §1, §2
Another data set has as its system ESBL K. pneumoniae. Kind of data set: Growth of clinical strain ESBL K. pneumoniae. Format: cell-based, Klebsiella pneumoniae. The settings on record: 10 μM. As for the experimental part:
as §1, §2

Another data set concerns bla mRNA. Briefly: bla mRNA expression by qPCR. It is filed as cell-based, E. coli. The settings on record: 5 μM α-TSS, 25 μM α-RBS, 25 μM α-YUNR; absence of ampicillin. Here is the method:
Three biological replicates were used for bla expression analysis. Cultures were pretreated overnight in respective PNA and liquid media in the absence of ampicillin and collected for RNA at 16 hr.
50 μL of the respective culture was added to 100 μL of Bacteria RNAprotect (Qiagen) and incubated at room temperature for 5 min. The cells were then pelleted via centrifugation for 3 min at 10,000 rpm, the supernatant removed, and samples were flash frozen in an ethanol dry ice bath and stored at −80° C. Precautions were taken to protect RNA from RNases using RNaseZap (Life Technologies). RNA was extracted from frozen cell pellets using GeneJET RNA purification kit (Thermo Scientific) and 350-600 ng was treated with Turbo DNA-free (Ambion). 50 ng cDNA was synthesized using Maxima Universal First Stand cDNA synthesis kit (Thermo Scientific). 1.5 ng of cDNA was used for qPCR with Maxima SYBR Green qPCR master mix with ROX normalization (Thermo Scientific) using Illumina Eco qPCR system. Transcript levels were analyzed using the ΔCq method with respect to moderately expressed housekeeping gene cysG (43). Transcript levels were further analyzed for the mutant populations using the ΔΔCq method with respect to the no treatment populations.

Data set [5] deals with ampicillin-resistant E. coli. It is filed as cell-based. The settings on record: for growth of drug-resistant E. coli in presence of ampicillin: antisense oligomer plus 300 μg/mL ampicillin. Here is the method:
pAKgfp1 plasmid was obtained from Addgene for TEM-1 β-lactamase resistance gene, bla (43). The plasmid was cloned into chemically competent Zymo DH5a E. coli (Expressys). Untransformed Zymo DH5a was used as a control strain for β-lactamase activity assays. Liquid cultures were grown in 2% LB, incubated at 37° C. and shaken at 225 rpm. Solid cultures were grown on 2% LB broth, 1.5% agar at 37° C. Ampicillin sodium salt (Sigma Aldrich) was used for selection at a concentration of 300 μg/mL for MIC and CFU analysis. Optical density measurements were taken using a Tecan GENios at 562 nm with a bandwidth of 35 nm. All bacterial freezer stocks were stored in 40% glycerol at −80° C.

For another data set, the system named is β-lactamase. The settings on record: 5 μM α-TSS, 25 μM α-RBS, 25 μM α-YUNR; absence of ampicillin. Here is the method:
Fluorocillin™ Green 495/525 β-lactamase substrate soluble product (Life Technologies) was used at a concentration of 2.2 μM as a β-lactamase substrate and measured using a Tecan GENios microplate reader in black flat bottom 96 well plate at 485/535 nm with a bandwidth of 35 nm. Three biological replicates were grown from colonies for 12 hours liquid media in the presence of the respective antisense agents, diluted 1:10 into liquid media and Fluorocillin green, and monitored in the Tecan GENios for 5 hr at 37° C. measuring every 2 min. The slope of fluorescence measured was used as a measure of β-lactamase activity.
Using quantitative real-time polymerase chain reaction (qPCR), expression levels of the bla gene in presence of the three antisense agents were measured. Studies were carried out with 5 μM α-TSS, 25 μM α-RBS, and 25 μM α-YUNR in the absence of ampicillin.

As to `CC1(C)S[C@@H]2[C@H](NC(=O)[C@H](N)c3ccccc3)C(=O)N2[C@H]1C(=O)O` [ampicillin, Ampicillin, reference compound], in data set [1], the “slope of the transition from resistant to sensitive (Boltzman fit)” value is on record as −0.0051 ODmLμg^−1. Also, in data set [1] (24 hr), the “ampicillin concentration up to which growth is without inhibition” value worked out at 300 µg/mL and the “ampicillin concentration where no growth was observed” value came to 700 µg/mL.

Regarding “KFFKFFKFFK -O-gctttcattccg (antisense GCTTTCATTCCG; all peptide nucleic acid (PNA); (KFF)3K cell-penetrating peptide joined to the N-terminus through an O-linker) [α-lexA, 12-mer antisense PNA centered on start codon of lexA, O-linker to (KFF)3K]”, the “growth inhibition of CRE E. coli” value in the data set with CRE E. coli is “inhibited”. Further, in the data set with MG1655 E. coli [2], the “viable cells at six and eight hours” value was “prevented significant increase in viable cells; also recorded: prevents significant increases in viable MG1655 E. coli cells”. In data set [3], the “growth inhibition of MDR S. typhimurium” value is “inhibited”. In the data set with MG1655 E. coli [4], the lag time entry is recorded as “significantly increased lag time” and the “growth of MG1655 E. coli cultures” value is “completely inhibited; also recorded: completely prevented cell growth; also recorded: Complete inhibition”. Besides, the “growth inhibition of MDR E. coli” value with MDR E. coli is recorded as “inhibited”.

With “KFFKFFKFFK -O-taatcatggtat (antisense TAATCATGGTAT; all peptide nucleic acid (PNA); (KFF)3K cell-penetrating peptide joined to the N-terminus through an O-linker) [α-folC, 12-mer antisense PNA centered on start codon of folC, O-linker to (KFF)3K]”, the “growth inhibition of CRE E. coli” value in the data set with CRE E. coli is on record as “inhibited”. Moreover, in data set [3], the “growth inhibition of MDR S. typhimurium” value is “inhibited”. Moreover, in the data set with MDR E. coli, the “growth inhibition of MDR E. coli” value is “inhibited”.

“KFFKFFKFFK -O-tcaaacattgtc (antisense TCAAACATTGTC; all peptide nucleic acid (PNA); (KFF)3K cell-penetrating peptide joined to the N-terminus through an O-linker) [α-ffh, 12-mer antisense PNA centered on start codon of ffh, O-linker to (KFF)3K]”: the “growth inhibition of CRE E. coli” value in the data set with CRE E. coli was “inhibited”. For the same compound, the “growth inhibition of MDR S. typhimurium” value in [3] is listed as “inhibited”. Further, in the data set with MDR E. coli, the “growth inhibition of MDR E. coli” value was “inhibited”.

Take “KFFKFFKFFK-O-cacctgcaagag (antisense CACCTGCAAGAG; all peptide nucleic acid (PNA); (KFF)3K cell-penetrating peptide joined to the N-terminus through an O-linker) [α-fnrS]”: in the data set with CRE E. coli, the “growth inhibition of CRE E. coli” value was “inhibited”. In data set [3], the “growth inhibition of MDR S. typhimurium” value was “inhibited”. In addition, in the data set on MG1655 E. coli [4], the lag time result is given as “significantly increased lag time” and the “growth of MG1655 E. coli cultures” value is given as “completely inhibited; also recorded: completely prevented cell growth; also recorded: Complete inhibition”. Moreover, the “growth inhibition of ESBL K. pneumoniae” value in the data set with ESBL K. pneumoniae was “inhibited”.

Turning to “KFFKFFKFFK-O-cctttttcaata (antisense CCTTTTTCAATA; PNA, (KFF)3K peptide via O-linker, chemistry not fully specified) [α-RBS]”, the “bla mRNA expression” value in the data set on bla mRNA was “did not affect bla transcript levels; also recorded: did not significantly reduce bla expression”. Besides, in [5], the “re-sensitization of drug resistant E. coli to ampicillin” value was “re-sensitized drug resistant E. coli to ampicillin; also recorded: re-sensitization of drug resistant E. coli to ampicillin; also recorded: re-sensitize” and the “growth of drug-resistant E. coli in presence of ampicillin” value was “hindered cell growth; also recorded: impact growth; also recorded: significant antibiotic effect”. The “growth in absence of ampicillin (toxicity of antisense agent)” value in [5] (absence of ampicillin) is on record as “non-toxic effect; also recorded: No inhibition”. The “minimum inhibitory concentration (MIC)” value in data set [5] (in presence of 300 μg/mL ampicillin, after overnight pretreatment with antisense agent) was determined as 25 µM.

In the case of “KFFKFFKFFK-O-gaataagggcga (antisense GAATAAGGGCGA; PNA, (KFF)3K peptide via O-linker, chemistry not fully specified) [α-YUNR]”, in the data set on β-lactamase, the β-lactamase activity entry is listed as “no impact on protein activity”. For the same compound, the “growth of drug-resistant E. coli in presence of ampicillin” value in [5] is “no impact on cell growth”.

Regarding “KFFKFFKFFK-O-ttcgacatcaac (antisense TTCGACATCAAC; PNA, (KFF)3K peptide via O-linker, chemistry not fully specified) [α-gyrB, 12-mer antisense PNA centered on start codon of gyrB, O-linker to (KFF)3K]”, the “growth inhibition of CRE E. coli” value in the data set on CRE E. coli is recorded as “inhibited”. Further, in data set [3], the “growth inhibition of MDR S. typhimurium” value is “inhibited”. Further, in the data set on MG1655 E. coli [4], the lag time entry is listed as “significantly increased lag time”.
